Where a name gives a salt, the structure may show the parent alone.
Key:
Colo205 tumor cells = assay: Cell growth inhibition assay (CellTiter-Glo), Colo205; format: cell-based, Human; conditions: Homo sapiens, COLO 205, 72 h; 3 days incubation
How it was run: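 Readout was CellTiter-Glo luminescence (total ATP, surrogate for cell number) after 3-day exposure at 37° C, 5% CO2 to 1:3 serial compound dilutions in 0.2% final DMSO. Seeding was 500 cells/well; IC50 derived by 4-parameter fit relative to vehicle-treated wells.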

HT-29 tumor cells = assay: Cell growth inhibition assay (CellTiter-Glo), HT-29; format: cell-based, Human; conditions: for IC50: Homo sapiens
Method: Human breast tumor cells (BT474) were cultured in RPMI (Mediatech […]), containing 10% FBS (JRH Biosciences 12176) and 1% penicillin-streptomycin (Invitrogen 15140). Human head and neck tumor cells (HN5) were cultured in high glucose DMEM (Mediatech 50-013-PB) containing 10% FBS and 1% penicillin-streptomycin. Human colon tumor cells (Colo205) were cultured in RPMI (Mediatech 50-020-PB) containing 10% FBS and 1% penicillin-streptomycin. Human melanoma cancer cells (SK-MEL-28) were cultured in EMEM with nonessential amino acids (Mediatech 50-011-PB) containing 10% FBS, 1% sodium pyruvate (JT Baker 3354-04), and 1% penicillin-streptomycin. Human melanoma cancer cells (A375P F11s) were cultured in RPMI (Mediatech 50-020-PB) containing 10% FBS, 1% sodium pyruvate, and 1% penicillin-streptomycin. Human colon cancer cells (HT-29) were cultured in high glucose DMEM (Mediatech 50-013-PB) containing 10% FBS and 1% penicillin-streptomycin. Human melanoma cancer cells (SK-MEL-3) were cultured in McCoy's 5A (50-025-PB) containing 15% FBS, and 1% penicillin-streptomycin. All cell lines were maintained at 37° C. in a humidified 5% CO2, 95% air incubator. Cells were harvested using trypsin/EDTA (Invitrogen 25200), counted using a haemocytometer, and plated. For 96-well assays (using white full-area NUNC plates cat. #136102), cells were plated in 105 μL at the following densities (cells/well): HNS, 500; Colo 205, 500; SK-MEL-28, 500; A375P F11s, 500; HT-29, 500; SK-MEL-3, 500; and BT474, 3000. For 384-well assays (white full-area NUNC plates, cat. #781080), cells were plated in 48 μL at the following densities (cells/well): HNS, 500; Colo205, 500; SK-MEL-28, 500; A375P F11s, 500; HT-29, 500; SK-MEL-3, 500; and BT474, 2000.
The next day, compounds were diluted as follow: For 96-well assays, 13.5 μL of compound in DMSO were diluted using nine (9) serial 1:3 dilutions of 4.5 μL in 9 of DMSO. Medium (270 μL/well of RPMI with 10% FBS and 1% penicillin-streptomycin) was added to the plates. Aliquots (7 μL) were added to cells in the final assay giving a final DMSO concentration of 0.2%. For 384-well assays, 15 μL of compound in DMSO were diluted using nine (9) serial 1:3 dilutions of 5 μL in 10 μL of DMSO, followed by a further dilution of 5 μL of compound with 95 μL of medium, of which 2 μL were added to cells in the final assay giving a final DMSO concentration of 0.2%. Cells were incubated at 37° C., 5% CO2 for 3 days.
Total ATP was measured (as a surrogate estimate of cell number) using CellTiter-Glo® reagent (Promega G7571). Briefly, plates were removed from the incubator and allowed to equilibrate to room temperature for 30 minutes. CellTiter-Glo® (25 μL or 55 μL for 384-well or 96-well assays, respectively) reagent was added to each well and plates were shaken on an orbital plate shaker for 2 minutes. Plates were incubated without shaking for a further 30 minutes and read on an LJL Analyst GT reader in luminometer mode with an integration time of 0.5 seconds per well. Percent inhibition of cell growth was calculated relative to DMSO vehicle-treated control wells. Concentration of compound required to give 50% inhibition of vehicle-treated control cell growth (IC50) was interpolated using a 4-parameter fit for determining IC50 using the following equation: Y=A +((B−A)/(1+((C/X)̂D))) where […].

ErbB2 = target: T1, ErbB2 (Homo sapiens, UniProt P04626); assay: ErbB-2 substrate phosphorylation assay (HTRF); format: biochemical
T1 construct: made in house; host or cells: baculovirus expression system
How it was run: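 Baculovirus-expressed EGFR (0.8 nM) or ErbB2 (10 nM) in enzyme mix, preincubated 1 h at 20 °C with compound (0.00027–47.6 μM final), then 90 min at 20 °C with substrate mix of 20 μM ATP, 0.8 uM biotinylated Peptide C, MnCl2, MOPS pH 7.5. Phosphotyrosine by HTRF; pIC50 reported.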

T1 sequence (P04626 23-1255): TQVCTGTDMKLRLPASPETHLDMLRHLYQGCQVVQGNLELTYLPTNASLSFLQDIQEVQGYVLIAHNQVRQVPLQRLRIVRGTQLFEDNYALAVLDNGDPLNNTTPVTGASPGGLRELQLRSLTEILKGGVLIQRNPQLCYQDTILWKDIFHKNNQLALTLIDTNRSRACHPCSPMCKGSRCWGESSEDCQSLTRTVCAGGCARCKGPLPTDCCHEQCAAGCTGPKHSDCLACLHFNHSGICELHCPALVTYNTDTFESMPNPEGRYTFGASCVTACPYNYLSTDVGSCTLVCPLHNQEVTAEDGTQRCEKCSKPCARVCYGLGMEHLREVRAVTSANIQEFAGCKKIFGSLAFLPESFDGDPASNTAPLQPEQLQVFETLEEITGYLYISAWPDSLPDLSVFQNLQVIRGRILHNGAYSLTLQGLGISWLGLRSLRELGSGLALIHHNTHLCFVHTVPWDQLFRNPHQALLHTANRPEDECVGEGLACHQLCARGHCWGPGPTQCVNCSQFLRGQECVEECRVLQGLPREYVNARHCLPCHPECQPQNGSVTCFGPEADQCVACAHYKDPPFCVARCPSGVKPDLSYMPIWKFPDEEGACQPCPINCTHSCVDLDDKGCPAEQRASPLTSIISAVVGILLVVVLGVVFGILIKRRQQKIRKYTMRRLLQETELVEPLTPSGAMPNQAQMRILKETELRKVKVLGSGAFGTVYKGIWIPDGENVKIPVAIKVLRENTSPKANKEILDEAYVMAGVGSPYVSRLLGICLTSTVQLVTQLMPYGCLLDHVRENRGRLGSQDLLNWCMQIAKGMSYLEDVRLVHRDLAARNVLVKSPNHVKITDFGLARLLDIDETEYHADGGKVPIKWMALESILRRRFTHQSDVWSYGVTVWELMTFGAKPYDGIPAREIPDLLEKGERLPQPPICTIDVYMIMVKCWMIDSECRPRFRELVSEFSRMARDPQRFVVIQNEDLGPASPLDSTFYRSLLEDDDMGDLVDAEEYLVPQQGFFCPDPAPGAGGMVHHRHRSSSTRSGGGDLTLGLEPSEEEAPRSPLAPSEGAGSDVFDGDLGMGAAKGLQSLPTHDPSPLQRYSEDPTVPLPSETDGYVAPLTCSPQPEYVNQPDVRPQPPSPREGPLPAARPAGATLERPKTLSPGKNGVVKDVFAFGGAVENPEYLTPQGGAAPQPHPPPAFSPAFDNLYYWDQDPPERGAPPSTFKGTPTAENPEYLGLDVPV

SMILES | IC50 (Colo205 tumor cells) [nM] | IC50 (HT-29 tumor cells) [nM] | IC50 (ErbB2) [nM] | Activity in HT-29 Tumor Cells (HT-29 tumor cells)
CC(=O)N1CCN(c2ccc(Nc3nccc(-c4sc(C(C)C)nc4-c4cccc(NS(=O)(=O)c5cccc(F)c5)c4)n3)cn2)CC1 [Example 11, N-{3-[5-(2-{[6-(4-Acetyl-1-piperazinyl)-3-pyridinyl]amino}-4-pyrimidinyl)-2-(1-methylethyl)-1,3-thiazol-4-yl]phenyl}-3-fluorobenzenesulfonamide] | < 100 | < 100 | 100 to 1000 | –
CCNc1nc(-c2cccc(NS(=O)(=O)c3ccccc3)c2)c(-c2ccnc(Nc3ccc(OCCN4CCCC4)c(F)c3)n2)s1 [Example 1, N-(3-(2-(Ethylamino)-5-{2-[(3-fluoro-4-[[2-(1-pyrrolidinyl)ethyl]oxy}phenyl)amino]-4-pyrimidinyl}-1,3-thiazol-4-yl)phenyl]benzenesulfonamide] | 100 to 1000 | – | 100 to 1000 | ++ (activity of between 100 nM and 1 μM in HT-29 tumor cells)
CC(C)c1nc(-c2cccc(NS(=O)(=O)c3c(F)cccc3F)c2)c(-c2ccnc(Nc3ccc(N4CCOCC4)nc3)n2)s1 [Example 17, 2,6-Difluoro-N-{3-[2-(1-methylethyl)-5-(2-{[6-(4-morpholinyl)-3-pyridinyl]amino}-4-pyrimidinyl)-1,3-thiazol-4-yl]phenyl}benzenesulfonamide] | < 100 | < 100 | > 1000 | –
CN1CCC(c2nc(-c3ccc(F)c(NS(=O)(=O)c4c(F)cccc4F)c3)c(-c3ccnc(Nc4ccc(N5CCOCC5)nc4)n3)s2)CC1 [Example 106] | 100 to 1000 | 100 to 1000 | 100 to 1000 | –
COc1cc(N2CCN(CCS(C)(=O)=O)CC2)c(C)cc1Nc1nccc(-c2sc(C(C)C)nc2-c2cccc(NS(=O)(=O)c3c(F)cccc3F)c2)n1 [Example 19] | < 100 | > 1000 | < 100 | –
CS(=O)(=O)c1cccc(Nc2nccc(-c3sc(N4CCOCC4)nc3-c3cccc(NS(=O)(=O)c4c(F)cccc4F)c3F)n2)c1 [Example 130] | < 100 | < 100 | 100 to 1000 | –
CCOc1ccc(Nc2nccc(-c3sc(N4CCCC4)nc3-c3cccc(NS(=O)(=O)c4c(F)cccc4F)c3)n2)cc1N1CCN(CCS(C)(=O)=O)CC1 [Example 109] | < 100 | 100 to 1000 | < 100 | –
CC(C)c1nc(-c2cccc(NS(=O)(=O)c3cccnc3)c2)c(-c2ccnc(Nc3ccc(N4CCOCC4)nc3)n2)s1 [Example 52] | < 100 | < 100 | 100 to 1000 | –
Cc1cc(Nc2nccc(-c3sc(C(C)C)nc3-c3ccc(F)c(NS(=O)(=O)c4c(F)cccc4F)c3)n2)ccn1 [Example 116] | < 100 | 100 to 1000 | 100 to 1000 | –
COCCN1CCN(c2ccc(Nc3nccc(-c4sc(C(C)C)nc4-c4cccc(NS(=O)(=O)c5ccccc5)c4)n3)cn2)CC1 [Example 6, N-[3-(2-(1-Methylethyl)-5-{2-[(6-{4-[2-(methyloxy)ethyl]-1-piperazinyl}-3-pyridinyl)amino]-4-pyrimidinyl}-1,3-thiazol-4-yl)phenyl]benzenesulfonamide] | < 100 | < 100 | 100 to 1000 | –
Cc1cc(N2CCN(CCS(C)(=O)=O)CC2)ncc1Nc1nccc(-c2sc(C(C)C)nc2-c2cccc(NS(=O)(=O)c3c(F)cccc3F)c2)n1 [Example 131] | < 100 | < 100 | 100 to 1000 | –
CC(C)c1nc(-c2cccc(NS(=O)(=O)c3c(F)cccc3F)n2)c(-c2ccnc(Nc3ccc(N4CCOCC4)nc3)n2)s1 [Example 44] | < 100 | 100 to 1000 | > 1000 | –
CC(C)c1nc(-c2cccc(NS(=O)(=O)c3cccs3)c2)c(-c2ccnc(Nc3ccc(N4CCOCC4)nc3)n2)s1 [Example 51] | < 100 | < 100 | 100 to 1000 | –
CN1CCN(c2nc(-c3ccc(F)c(NS(=O)(=O)c4c(F)cccc4F)c3)c(-c3ccnc(Nc4ccc(N5CCOCC5)nc4)n3)s2)CC1 [Example 126] | < 100 | 100 to 1000 | 100 to 1000 | –
CC(C)c1nc(-c2ccc(F)c(NS(=O)(=O)c3c(F)cccc3F)c2)c(-c2ccnc(Nc3ccncc3)n2)s1 [Example 102] | 100 to 1000 | 100 to 1000 | > 1000 | –
COc1ccc(Nc2nccc(-c3sc(C(C)C)nc3-c3cccc(NS(=O)(=O)c4ccccc4)c3)n2)cc1N1CCN(CCC#N)CC1 [Example 9, N-{3-[5-(2-{[3-[4-(2-Cyanoethyl)-1-piperazinyl]-4-(methyloxy)phenyl]amino}-4-pyrimidinyl)-2-(1-methylethyl)-1,3-thiazol-4-yl]phenyl}benzenesulfonamide] | < 100 | 100 to 1000 | < 100 | –
O=S1(=O)Cc2ccc(Nc3nccc(-c4sc(N5CCOCC5)nc4-c4cccc(NS(=O)(=O)c5c(F)cccc5F)c4F)n3)cc2C1 [Example 155] | < 100 | < 100 | 100 to 1000 | –
COc1ccc(Nc2nccc(-c3sc(C(C)C)nc3-c3cccc(NS(=O)(=O)c4c(F)cccc4F)c3)n2)cc1N(C)C [Example 18, N-{3-[5-(2-{[3-(Dimethylamino)-4-(methyloxy)phenyl]amino}-4-pyrimidinyl)-2-(1-methylethyl)-1,3-thiazol-4-yl]phenyl}-2,6-difluorobenzenesulfonamide trifluoroacetate] | < 100 | < 100 | 100 to 1000 | –
CC(=O)N1CCN(c2ccc(Nc3nccc(-c4oc(C(C)C)nc4-c4cccc(NS(=O)(=O)c5c(F)cccc5F)c4)n3)cn2)CC1 [Example 56] | < 100 | 100 to 1000 | > 1000 | –
CC(C)c1nc(-c2ccc(F)c(NS(=O)(=O)c3c(F)cccc3F)c2)c(-c2ccnc(Nc3ccc(N4CCC(C#N)CC4)nc3)n2)s1 [Example 24, N-{5-[5-(2-{[6-(4-Cyano-1-piperidinyl)-3-pyridinyl]amino}-4-pyrimidinyl)-2-(1-methylethyl)-1,3-thiazol-4-yl]-2-fluorophenyl}-2,6-difluorobenzenesulfonamide] | < 100 | < 100 | 100 to 1000 | –
CC(=O)N1CCN(c2ccc(Nc3nccc(-c4sc(C(C)C)nc4-c4cccc(NS(=O)(=O)C5CCCCC5)c4)n3)cn2)CC1 [Example 39] | 100 to 1000 | > 1000 | > 1000 | –
O=S(=O)(Nc1cc(-c2nc(N3CCCC3)sc2-c2ccnc(Nc3ccc(N4CCOCC4)nc3)n2)ccc1F)c1c(F)cccc1F [Example 26, 2,6-Difluoro-N-{2-fluoro-5-[5-(2-{(6-(4-morpholinyl)-3-pyridinyl]amino}-4-pyrimidinyl)-2-(1-pyrrolidinyl)-1,3-thiazol-4-yl]phenyl}benzenesulfonamide] | < 100 | > 1000 | 100 to 1000 | –
CC(C)c1nc(-c2cccc(NS(=O)(=O)c3c(F)cccc3F)c2)c(-c2ccnc(Nc3ccc(N4CCOCC4)c(F)c3)n2)o1 [Example 57] | < 100 | 100 to 1000 | > 1000 | –
